The test system of assay [1] is DU-145 (human prostate cancer cells). The assay can be described thus: Measurement of cell proliferation (WST1), DU-145. Particulars: DU-145, 96 hours treatment, read-out: IC50 inhibitory concentration, proliferation of DU-145 cell lines. Type of assay: cell-based. As for the experimental part: (§1) DU-145 (human prostate cancer cells), HT29 (cancer of the colon) and Mia-PaCa2 (human pancreatic cancer cells) were acquired from the American Tissue Culture Collection (Rockville, Md., USA).
(§2) Measurement of Cell Proliferation
(§3) The cells placed in 80 μl of Dulbecco's modified Eagle medium (Gibco-BRL, Cergy-Pontoise, France) completed with 10% of foetal calf serum inactivated by heating (Gibco-BRL, Cergy-Pontoise, France), 50000 units/l of penicillin and 50 mg/l streptomycin (Gibco-BRL, Cergy-Pontoise, France), and 2 mM of glutamine (Gibco-BRL, Cergy-Pontoise, France) were seeded on a 96-well plate on day 0. The cells were treated on day 1 for 96 hours with increasing concentrations of each of the compounds to be tested. At the end of the of this period, quantification of the cell proliferation is evaluated by a calorimetric test based on the cleavage of the tetrazolium salt WST1 by mitochondrial dehydrogenases in viable cells leading to the formation of formazan (Boehringer Mannheim, Meylan, France). These tests are carried out in duplicate with 8 determinations per concentration tested. The products are solubilised in dimethylsulphoxide (DMSO) at 10^−2 M and finally used in culture with 0.5% DMSO.

The subject of assay [2] is Mia-PaCa2 (human pancreatic cancer cells). Briefly: Measurement of cell proliferation (WST1), Mia-PaCa2. Type of assay: cell-based. The conditions noted are these: MIA PaCa-2, Mia-Paca2, 96 hours treatment, read-out: IC50 inhibitory concentration, proliferation of Mia-Paca2 cell lines. As for the experimental part: as §1, §2, §3
A general note: Formazan colour is commonly taken as a measure of viable cells.

For `CN(C)CC1C(=O)OC2CC3(C)OC3C(O)C(N(C)C)C3=CC(OC3=O)C21` (stereo not shown) [Example 2, 12-dimethylamino-3-dimethylaminomethyl-11-hydroxy-8-methyl-5,9,15-trioxatetracyclo[11.2.1.0^2,6.0^8,10]hexadec-13(16)-ene-4,14-dione], the IC50 in assay [1] and in assay [2] was no more than 30 µM each time.
On to `CC12CC3OC(=O)C(CN4CCOCC4)C3C3C=C(C(=O)O3)C(N3CCOCC3)C(O)C1O2` (stereo not shown) [Example 4, 11-hydroxy-8-methyl-12-morpholino-3-morpholinomethyl-5,9,15-trioxatetracyclo[11.2.1.0^2,6.0^8,10]hexadec-13(16)-ene-4,14-dione], for which the IC50 in assay [2] was no more than 30 µM.
`CC1C(=O)OC2CC3(C)OC3C(O)C(N(C)C)C3=CC(OC3=O)C21` (stereo not shown) [Example 5, 12-dimethylamino-11-hydroxy-3,8-dimethyl-5,9,15-trioxatetracyclo[11.2.1.0^2,6.0^8,10]hexadec-13(16)-ene-4,14-dione]: the IC50 in assay [2] was no more than 30 µM.
On to `CC1CCN(C2C3=CC(OC3=O)C3C(CC4(C)OC4C2O)OC(=O)C3C)CC1` (stereo not shown) [Example 9, 11-hydroxy-3,8-dimethyl-12-(4-methylpiperidino)-5,9,15-trioxatetracyclo[11.2.1.0^2,6.0^8,10]hexadec-13(16)-ene-4,14-dione], for which the IC50 in assay [1] and in assay [2] was no more than 30 µM throughout.
Consider `CC1C(=O)OC2CC3(C)OC3C(O)C(N3CCCC3)C3=CC(OC3=O)C21` (stereo not shown) [Example 10, 11-hydroxy-3,8-dimethyl-12-pyrrolidino-5,9,15-trioxatetracyclo[11.2.1.0^2,6.0^8,10]hexadec-13(16)-ene-4,14-dione], for which, in assay [2], the IC50 is no more than 30 µM.
With `CC1C(=O)OC2CC3(C)OC3C(O)C(N3CCC(Cc4ccccc4)CC3)C3=CC(OC3=O)C21` (stereo not shown) [Example 12, 12-(4-benzylpiperidino)-11-hydroxy-3,8-dimethyl-5,9,15-trioxatetracyclo[11.2.1.0^2,6.0^8,10]hexadec-13(16)-ene-4,14-dione], in assay [2], the IC50 is no more than 30 µM.
Turning to `CC1CCN(C2C3=CC(OC3=O)C3C(CC4(C)OC4C2OC(=O)c2ccccc2)OC(=O)C3C)CC1` (stereo not shown) [Example 18, 3,8-dimethyl-12-(4-methylpiperidino)-4,14-dioxo-11-phenylcarbonyloxy-5,9,15-trioxatetracyclo[11.2.1.0^2,6.0^8,10]hexadec-13(16)-ene], the IC50 in assay [1] and in assay [2] was no more than 30 µM throughout.
In the case of `CCOC(=O)OC1C(N2CCC(C)CC2)C2=CC(OC2=O)C2C(CC3(C)OC13)OC(=O)C2C` (stereo not shown) [Example 19, ethyl 3,8-dimethyl-12-(4-methylpiperidino)-4,14-dioxo-5,9,15-trioxatetracyclo[11.2.1.0^2,6.0^8,10]hexadec-13(16)-en-11-yl carbonate], the IC50 in assay [2] is no more than 30 µM.
With `CC(C)CSCC1C(=O)OC2CC3(C)OC3C(O)C(SCC(C)C)C3=CC(OC3=O)C21` (stereo not shown) [Example 20, 11-hydroxy-12-isobutylsulphanyl-3-isobutylsulphanylmethyl-8-methyl-5,9,15-trioxatetracyclo[11.2.1.0^2,6.0^8,10]hexadec-13(16)-ene-4,14-dione], in assay [2], the IC50 is no more than 30 µM.
For the molecule `CC1C(=O)OC2CC3(C)OC3C(OC(=O)C3CCCCC3)C(N(C)C)C3=CC(OC3=O)C21` (stereo not shown) [Example 24, 12-(dimethylamino)-3,8-dimethyl-4,14-dioxo-5,9,15-trioxatetracyclo[11.2.1.0^2,6.0^8,10]hexadec-13(16)-en-11-yl cyclohexanecarboxylate], the IC50 in assay [1] and in assay [2] was no more than 30 µM in each case.
For the molecule `CC1C(=O)OC2CC3(C)OC3C(OC(=O)c3ccc(F)cc3)C(N(C)C)C3=CC(OC3=O)C21` (stereo not shown) [Example 25, 12-(dimethylamino)-3,8-dimethyl-4,14-dioxo-5,9,15-trioxatetracyclo[11.2.1.0^2,6.0^8,10]hexadec-13(16)-en-11-yl 4-fluorobenzoate], the IC50 in assay [1] and in assay [2] was no more than 30 µM each time.
Regarding `CCCCCCC(=O)OC1C(N(C)C)C2=CC(OC2=O)C2C(CC3(C)OC13)OC(=O)C2C` (stereo not shown) [Example 27, 12-(dimethylamino)-3,8-dimethyl-4,14-dioxo-5,9,15-trioxatetracyclo[11.2.1.0^2,6.0^8,10]hexadec-13(16)-en-11-yl heptanoate], the IC50 in assay [1] and in assay [2] was no more than 30 µM in each case.
For `CC1C(=O)OC2CC3(C)OC3C(OC(=O)c3ccc(C(F)(F)F)cc3)C(N(C)C)C3=CC(OC3=O)C21` (stereo not shown) [Example 28, 12-(dimethylamino)-3,8-dimethyl-4,14-dioxo-5,9,15-trioxatetracyclo[11.2.1.0^2,6.0^8,10]hexadec-13(16)-en-11-yl 4-(trifluoromethyl)benzoate], the IC50 in assay [1] and in assay [2] was no more than 30 µM each time.
For `CC1C(=O)OC2CC3(C)OC3C(OC(=O)c3cccs3)C(N(C)C)C3=CC(OC3=O)C21` (stereo not shown) [Example 29, 12-(dimethylamino)-3,8-dimethyl-4,14-dioxo-5,9,15-trioxatetracyclo[11.2.1.0^2,6.0^8,10]hexadec-13(16)-en-11-yl 2-thiophenecarboxylate], the IC50 in assay [1] and in assay [2] was no more than 30 µM in each case.
As for `CC1C(=O)OC2CC3(C)OC3C(OC(=O)CC(C)(C)C)C(N(C)C)C3=CC(OC3=O)C21` (stereo not shown) [Example 30, 12-(dimethylamino)-3,8-dimethyl-4,14-dioxo-5,9,15-trioxatetracyclo[11.2.1.0^2,6.0^8,10]hexadec-13(16)-en-11-yl 3,3-dimethylbutanoate], the IC50 in assay [1] and in assay [2] was no more than 30 µM in each case.
In the case of `CC1C(=O)OC2CC3(C)OC3C(OC(=O)c3cc4ccccc4s3)C(N(C)C)C3=CC(OC3=O)C21` (stereo not shown) [Example 31, 12-(dimethylamino)-3,8-dimethyl-4,14-dioxo-5,9,15-trioxatetracyclo[11.2.1.0^2,6.0^8,10]hexadec-13(16)-en-11-yl 1-benzothiophene-2-carboxylate], the IC50 in assay [1] and in assay [2] was no more than 30 µM throughout.
Take `CC1C(=O)OC2CC3(C)OC3C(OC(=O)c3ccco3)C(N(C)C)C3=CC(OC3=O)C21` (stereo not shown) [Example 32, 12-(dimethylamino)-3,8-dimethyl-4,14-dioxo-5,9,15-trioxatetracyclo[11.2.1.0^2,6.0^8,10]hexadec-13(16)-en-11-yl 2-furoate]: the IC50 in assay [1] and in assay [2] was no more than 30 µM throughout.
Regarding `CC1C(=O)OC2CC3(C)OC3C(OC(=O)c3ccc([N+](=O)[O-])o3)C(N(C)C)C3=CC(OC3=O)C21` (stereo not shown) [Example 33, 12-(dimethylamino)-3,8-dimethyl-4,14-dioxo-5,9,15-trioxatetracyclo[11.2.1.0^2,6.0^8,10]hexadec-13(16)-en-11-yl 5-nitro-2-furoate], in assay [2], the IC50 was no more than 30 µM.
Still for that read-out and setting: to `CC1C(=O)OC2CC3(C)OC3C(OC(=O)Cc3cccs3)C(N(C)C)C3=CC(OC3=O)C21` (stereo not shown) [Example 35, 12-(dimethylamino)-3,8-dimethyl-4,14-dioxo-5,9,15-trioxatetracyclo[11.2.1.0^2,6.0^8,10]hexadec-13(16)-en-11-yl 2-thienylacetate] belongs no more than 30 µM; to `CC1C(=O)OC2CC3(C)OC3C(OC(=O)COc3ccccc3)C(N(C)C)C3=CC(OC3=O)C21` (stereo not shown) [Example 36, 12-(dimethylamino)-3,8-dimethyl-4,14-dioxo-5,9,15-trioxatetracyclo[11.2.1.0^2,6.0^8,10]hexadec-13(16)-en-11-yl phenoxyacetate], no more than 30 µM; to `CC1C(=O)OC2CC3(C)OC3C(OC(=O)Nc3ccc(C(C)(C)C)cc3)C(N(C)C)C3CC(OC3=O)C21` (stereo not shown) [Example 37, 8-(dimethylamino)-3,10a-dimethyl-2,6-dioxodecahydro-4,7-methenofuro[3,2-c]oxireno[f]oxacycloundecin-9-yl 4-tert-butylphenylcarbamate], no more than 30 µM.
As for `COc1ccccc1NC(=O)OC1C(N(C)C)C2CC(OC2=O)C2C(CC3(C)OC13)OC(=O)C2C` (stereo not shown) [Example 39, 8-(dimethylamino)-3,10a-dimethyl-2,6-dioxodecahydro-4,7-methenofuro[3,2-c]oxireno[f]oxacycloundecin-9-yl 2-methoxyphenylcarbamate], the IC50 in assay [1] and in assay [2] was no more than 30 µM each time.
For `CSc1ccccc1NC(=O)OC1C(N(C)C)C2CC(OC2=O)C2C(CC3(C)OC13)OC(=O)C2C` (stereo not shown) [Example 40, 8-(dimethylamino)-3,10a-dimethyl-2,6-dioxodecahydro-4,7-metheno-furo[3,2-c]oxireno[f]oxacycloundecin-9-yl 2(methylthio)phenylcarbamate], the IC50 in assay [1] and in assay [2] was no more than 30 µM in each case.
In the case of `CCOc1ccccc1NC(=O)OC1C(N(C)C)C2CC(OC2=O)C2C(CC3(C)OC13)OC(=O)C2C` (stereo not shown) [Example 41, 8-(dimethylamino)-3,10a-dimethyl-2,6-dioxodecahydro-4,7-methenofuro[3,2-c]oxireno[f]oxacycloundecin-9-yl 2-ethoxyphenylcarbamate], the IC50 in assay [1] and in assay [2] was no more than 30 µM each time.
Regarding `CC1C(=O)OC2CC3(C)OC3C(OC(=O)Nc3ccsc3)C(N(C)C)C3CC(OC3=O)C21` (stereo not shown) [Example 42, 8-(dimethylamino)-3,10a-dimethyl-2,6-dioxodecahydro-4,7-methenofuro[3,2-c]oxireno[f]oxacycloundecin-9-yl thien-3-ylcarbamate], the IC50 in assay [1] and in assay [2] was no more than 30 µM in each case.

These data come from US6887869B2, “Mikanolide derivatives, their preparation and therapeutic uses” (Societe de Conseils de Recherches et d'Applications …, priority 2001, dated 2005).
